Tests used:
[1] = biological target: Calcium/calmodulin-dependent protein kinase type 1 (Homo sapiens) (UniProt Q14012); assay: Selectivity interaction (KinomeScan (DiscoverX)) EUB0000666a CAMK1; conditions: at 10 µM
[2] = biological target: Dual specificity protein kinase CLK3 (Homo sapiens, UniProt P49761); assay: Selectivity interaction (KinomeScan (DiscoverX)) EUB0001079a CLK3; conditions: at 1 µM
[3] = biological target: T1, Mitogen-activated protein kinase kinase kinase 3 (Homo sapiens) (UniProt Q99759); assay: Selectivity interaction (Kinase panel (KiNativ target engagement assay in Jurkat cells)) EUB0001635a MAP3K3; format: cell-based; conditions: Selectivity number of off-targets 0.0, Selectivity number of targets 233.0, Source Knowledge https://www.sciencedirect.com/science/article/pii/S2451945619300674?via%3Dihub, at 1 µM
T1 sequence (whole entry): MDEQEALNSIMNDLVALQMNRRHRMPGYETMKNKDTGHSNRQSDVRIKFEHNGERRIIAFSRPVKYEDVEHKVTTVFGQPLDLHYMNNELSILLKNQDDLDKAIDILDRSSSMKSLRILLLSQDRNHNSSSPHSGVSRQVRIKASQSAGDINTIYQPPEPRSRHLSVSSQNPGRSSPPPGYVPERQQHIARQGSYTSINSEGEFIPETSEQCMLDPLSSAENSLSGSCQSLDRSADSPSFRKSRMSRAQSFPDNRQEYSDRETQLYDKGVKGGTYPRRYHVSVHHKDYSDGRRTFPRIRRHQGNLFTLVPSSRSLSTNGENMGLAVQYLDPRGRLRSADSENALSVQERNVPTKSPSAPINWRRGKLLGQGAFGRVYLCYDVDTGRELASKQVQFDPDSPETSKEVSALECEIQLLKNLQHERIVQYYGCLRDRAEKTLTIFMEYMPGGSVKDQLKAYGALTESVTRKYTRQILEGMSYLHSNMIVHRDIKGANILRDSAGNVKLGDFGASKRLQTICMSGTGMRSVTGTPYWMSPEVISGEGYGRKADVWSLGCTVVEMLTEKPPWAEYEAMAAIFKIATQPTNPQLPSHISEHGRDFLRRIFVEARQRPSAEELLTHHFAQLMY

[4] = biological target: Hepatocyte growth factor-like protein (Homo sapiens) (UniProt P26927); conditions: at 10 µM
[5] = biological target: Phosphatidylinositol 4-kinase alpha (Homo sapiens, UniProt P42356); assay: Selectivity interaction (ActivX KiNativ screen (kinase selectivity in THP-1 cell lysates)) EUB0000639a PI4KA; format: subcellular; conditions: lysate
Phosphatidylinositol 4-kinase alpha, sequence (P42356 whole entry, looked up): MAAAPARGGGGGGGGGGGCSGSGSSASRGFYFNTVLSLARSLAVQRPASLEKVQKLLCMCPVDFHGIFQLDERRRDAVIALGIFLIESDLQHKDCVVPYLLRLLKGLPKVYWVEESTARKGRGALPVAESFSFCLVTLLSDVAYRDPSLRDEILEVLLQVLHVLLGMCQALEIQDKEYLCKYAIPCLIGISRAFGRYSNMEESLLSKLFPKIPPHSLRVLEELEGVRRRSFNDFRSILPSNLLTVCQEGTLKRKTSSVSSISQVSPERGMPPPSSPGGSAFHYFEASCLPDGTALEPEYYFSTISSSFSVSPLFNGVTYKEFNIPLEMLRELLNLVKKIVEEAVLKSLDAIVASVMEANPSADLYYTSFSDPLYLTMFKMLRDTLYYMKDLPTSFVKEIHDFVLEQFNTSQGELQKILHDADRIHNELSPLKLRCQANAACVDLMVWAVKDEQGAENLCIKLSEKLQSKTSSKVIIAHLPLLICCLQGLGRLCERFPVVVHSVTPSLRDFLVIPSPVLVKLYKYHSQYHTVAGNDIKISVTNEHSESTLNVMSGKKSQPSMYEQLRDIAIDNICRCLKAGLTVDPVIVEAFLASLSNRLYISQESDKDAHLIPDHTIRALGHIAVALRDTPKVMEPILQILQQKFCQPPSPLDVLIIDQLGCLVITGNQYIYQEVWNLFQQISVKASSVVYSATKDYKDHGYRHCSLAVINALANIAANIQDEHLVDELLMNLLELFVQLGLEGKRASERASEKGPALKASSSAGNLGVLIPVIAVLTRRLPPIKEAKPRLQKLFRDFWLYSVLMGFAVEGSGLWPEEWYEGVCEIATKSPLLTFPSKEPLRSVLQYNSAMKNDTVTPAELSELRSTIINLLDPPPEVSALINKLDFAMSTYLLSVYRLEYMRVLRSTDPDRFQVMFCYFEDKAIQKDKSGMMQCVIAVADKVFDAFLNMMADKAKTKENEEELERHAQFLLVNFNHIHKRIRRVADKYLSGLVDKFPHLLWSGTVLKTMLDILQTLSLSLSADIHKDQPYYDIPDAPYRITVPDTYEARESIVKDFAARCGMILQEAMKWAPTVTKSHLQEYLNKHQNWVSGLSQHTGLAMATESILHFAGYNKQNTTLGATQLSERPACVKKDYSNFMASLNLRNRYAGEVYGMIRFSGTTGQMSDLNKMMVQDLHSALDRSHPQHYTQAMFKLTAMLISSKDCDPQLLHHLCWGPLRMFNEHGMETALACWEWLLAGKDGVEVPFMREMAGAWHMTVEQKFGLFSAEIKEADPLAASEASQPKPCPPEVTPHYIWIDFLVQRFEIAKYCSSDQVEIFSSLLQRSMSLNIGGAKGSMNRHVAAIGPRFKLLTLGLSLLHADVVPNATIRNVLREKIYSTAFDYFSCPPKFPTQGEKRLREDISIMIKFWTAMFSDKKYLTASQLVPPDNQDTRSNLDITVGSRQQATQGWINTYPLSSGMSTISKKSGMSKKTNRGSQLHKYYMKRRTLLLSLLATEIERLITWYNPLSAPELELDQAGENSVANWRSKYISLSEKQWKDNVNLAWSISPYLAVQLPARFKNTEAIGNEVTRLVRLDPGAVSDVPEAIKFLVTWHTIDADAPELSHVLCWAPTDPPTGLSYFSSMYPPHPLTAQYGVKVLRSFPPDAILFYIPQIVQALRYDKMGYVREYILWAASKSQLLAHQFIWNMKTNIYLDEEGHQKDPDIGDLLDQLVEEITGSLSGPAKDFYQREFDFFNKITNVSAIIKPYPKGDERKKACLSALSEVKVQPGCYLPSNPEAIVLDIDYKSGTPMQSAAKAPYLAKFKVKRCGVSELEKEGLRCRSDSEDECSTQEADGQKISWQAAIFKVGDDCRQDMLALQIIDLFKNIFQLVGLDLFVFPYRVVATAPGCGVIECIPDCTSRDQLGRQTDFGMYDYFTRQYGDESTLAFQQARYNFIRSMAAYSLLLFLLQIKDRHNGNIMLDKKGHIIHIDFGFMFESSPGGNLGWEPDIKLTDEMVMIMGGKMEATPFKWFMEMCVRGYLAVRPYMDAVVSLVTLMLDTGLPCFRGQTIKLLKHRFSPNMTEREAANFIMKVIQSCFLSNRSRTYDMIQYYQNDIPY

[6] = biological target: Ribosomal protein S6 kinase alpha-3 (Homo sapiens, UniProt P51812); assay: Selectivity interaction (ActivX KiNativ screen (kinase selectivity in THP-1 cell lysates)) EUB0000639a RPS6KA3; format: subcellular; conditions: lysate, at 0.01 µM
[7] = biological target: Protein-tyrosine kinase 2-beta (Homo sapiens) (UniProt Q14289); assay: Selectivity interaction (KinomeScan (DiscoverX)) EUB0000092b PTK2B; conditions: at 10 µM
Protein-tyrosine kinase 2-beta (Homo sapiens), sequence (Q14289 whole entry, looked up): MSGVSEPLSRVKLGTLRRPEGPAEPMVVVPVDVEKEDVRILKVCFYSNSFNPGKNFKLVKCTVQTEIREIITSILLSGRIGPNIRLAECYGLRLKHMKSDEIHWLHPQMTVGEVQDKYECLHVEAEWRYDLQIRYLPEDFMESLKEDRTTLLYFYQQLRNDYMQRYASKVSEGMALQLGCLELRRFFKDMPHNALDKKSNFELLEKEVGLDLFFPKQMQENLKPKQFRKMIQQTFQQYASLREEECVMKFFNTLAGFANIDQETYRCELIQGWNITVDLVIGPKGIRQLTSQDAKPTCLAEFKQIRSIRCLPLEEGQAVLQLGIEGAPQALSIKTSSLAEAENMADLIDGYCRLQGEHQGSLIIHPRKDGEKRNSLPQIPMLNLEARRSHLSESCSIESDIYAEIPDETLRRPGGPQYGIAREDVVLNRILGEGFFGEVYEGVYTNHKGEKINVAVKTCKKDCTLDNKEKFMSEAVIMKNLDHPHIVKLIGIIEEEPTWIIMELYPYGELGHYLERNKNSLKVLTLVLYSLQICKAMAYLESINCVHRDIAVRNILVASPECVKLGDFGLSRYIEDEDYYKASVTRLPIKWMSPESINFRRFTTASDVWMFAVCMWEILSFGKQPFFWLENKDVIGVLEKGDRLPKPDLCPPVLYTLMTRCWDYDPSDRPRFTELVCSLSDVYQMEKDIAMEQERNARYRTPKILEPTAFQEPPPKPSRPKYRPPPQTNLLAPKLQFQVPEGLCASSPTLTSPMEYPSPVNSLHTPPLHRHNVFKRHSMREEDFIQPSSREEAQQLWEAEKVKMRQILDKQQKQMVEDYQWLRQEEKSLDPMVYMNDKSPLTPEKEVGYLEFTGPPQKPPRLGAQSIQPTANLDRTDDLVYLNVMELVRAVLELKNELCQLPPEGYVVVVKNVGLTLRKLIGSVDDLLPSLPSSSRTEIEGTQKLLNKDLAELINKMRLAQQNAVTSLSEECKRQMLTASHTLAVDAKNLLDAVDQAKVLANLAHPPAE

[8] = biological target: Phosphatidylinositol 4-phosphate 5-kinase type-1 gamma (Homo sapiens) (UniProt O60331); assay: Selectivity interaction (KinomeScan (DiscoverX)) EUB0000045b PIP5K1C
Phosphatidylinositol 4-phosphate 5-kinase type-1 gamma (Homo sapiens), sequence (O60331 whole entry): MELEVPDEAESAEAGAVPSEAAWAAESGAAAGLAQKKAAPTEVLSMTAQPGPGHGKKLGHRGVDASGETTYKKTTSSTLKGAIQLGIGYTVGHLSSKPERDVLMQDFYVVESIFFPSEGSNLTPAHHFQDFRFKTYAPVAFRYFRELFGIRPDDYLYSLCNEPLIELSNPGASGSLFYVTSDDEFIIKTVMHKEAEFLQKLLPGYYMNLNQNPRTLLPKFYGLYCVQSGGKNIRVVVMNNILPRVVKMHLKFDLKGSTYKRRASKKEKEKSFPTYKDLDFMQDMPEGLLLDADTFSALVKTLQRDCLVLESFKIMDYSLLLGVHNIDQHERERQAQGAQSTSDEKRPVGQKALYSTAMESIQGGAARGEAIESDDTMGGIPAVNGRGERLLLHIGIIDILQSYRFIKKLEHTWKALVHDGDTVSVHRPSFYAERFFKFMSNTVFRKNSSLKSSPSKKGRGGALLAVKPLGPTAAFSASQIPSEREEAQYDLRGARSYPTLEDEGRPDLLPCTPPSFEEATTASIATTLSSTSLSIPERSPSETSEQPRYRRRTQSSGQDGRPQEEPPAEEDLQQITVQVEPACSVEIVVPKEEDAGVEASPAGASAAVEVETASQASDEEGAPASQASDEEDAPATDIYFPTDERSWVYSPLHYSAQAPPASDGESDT

[9] = tested on: Epidermal growth factor receptor (Homo sapiens), P00533 [UNDEFINED MUTATION]; assay: Selectivity interaction (KinomeScan (DiscoverX)) EUB0000045b EGFR; conditions: at 10 µM
[10] = biological target: T2, Mitogen-activated protein kinase kinase kinase 13 (Homo sapiens) (UniProt O43283); assay: Selectivity interaction (KinomeScan (DiscoverX)) EUB0001619a MAP3K13; conditions: at 1 µM
T2 sequence (whole entry): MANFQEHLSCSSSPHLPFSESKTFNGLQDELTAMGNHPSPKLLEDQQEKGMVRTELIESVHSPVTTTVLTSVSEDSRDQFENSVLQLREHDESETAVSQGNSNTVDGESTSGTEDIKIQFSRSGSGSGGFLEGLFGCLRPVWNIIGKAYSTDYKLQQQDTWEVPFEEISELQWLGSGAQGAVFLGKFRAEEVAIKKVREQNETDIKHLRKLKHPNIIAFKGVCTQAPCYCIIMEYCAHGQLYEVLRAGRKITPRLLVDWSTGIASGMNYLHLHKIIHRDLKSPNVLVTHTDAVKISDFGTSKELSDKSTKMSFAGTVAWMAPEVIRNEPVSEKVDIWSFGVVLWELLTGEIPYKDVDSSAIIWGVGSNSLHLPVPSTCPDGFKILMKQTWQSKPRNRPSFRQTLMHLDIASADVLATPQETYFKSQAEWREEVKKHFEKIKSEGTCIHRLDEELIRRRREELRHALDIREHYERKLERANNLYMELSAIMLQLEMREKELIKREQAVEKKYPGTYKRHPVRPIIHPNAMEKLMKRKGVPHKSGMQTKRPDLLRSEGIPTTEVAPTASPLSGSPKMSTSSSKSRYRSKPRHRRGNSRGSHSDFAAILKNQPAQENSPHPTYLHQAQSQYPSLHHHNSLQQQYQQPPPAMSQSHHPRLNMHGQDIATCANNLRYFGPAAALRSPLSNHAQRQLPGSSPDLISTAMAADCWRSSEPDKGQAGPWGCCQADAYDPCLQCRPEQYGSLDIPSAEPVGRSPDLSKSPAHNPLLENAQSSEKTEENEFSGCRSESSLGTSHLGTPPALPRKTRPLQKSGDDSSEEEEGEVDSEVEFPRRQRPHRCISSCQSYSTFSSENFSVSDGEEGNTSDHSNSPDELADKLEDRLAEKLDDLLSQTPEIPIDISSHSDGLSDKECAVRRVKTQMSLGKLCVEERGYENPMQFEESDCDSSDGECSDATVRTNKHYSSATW

[11] = biological target: T3, MAP kinase-activated protein kinase 5 (Homo sapiens) (UniProt Q8IW41); assay: Selectivity interaction (SelectScreen profiling (Invitrogen)) EUB0000607a MAPKAPK5; conditions: at 2 µM
T3 sequence (whole entry): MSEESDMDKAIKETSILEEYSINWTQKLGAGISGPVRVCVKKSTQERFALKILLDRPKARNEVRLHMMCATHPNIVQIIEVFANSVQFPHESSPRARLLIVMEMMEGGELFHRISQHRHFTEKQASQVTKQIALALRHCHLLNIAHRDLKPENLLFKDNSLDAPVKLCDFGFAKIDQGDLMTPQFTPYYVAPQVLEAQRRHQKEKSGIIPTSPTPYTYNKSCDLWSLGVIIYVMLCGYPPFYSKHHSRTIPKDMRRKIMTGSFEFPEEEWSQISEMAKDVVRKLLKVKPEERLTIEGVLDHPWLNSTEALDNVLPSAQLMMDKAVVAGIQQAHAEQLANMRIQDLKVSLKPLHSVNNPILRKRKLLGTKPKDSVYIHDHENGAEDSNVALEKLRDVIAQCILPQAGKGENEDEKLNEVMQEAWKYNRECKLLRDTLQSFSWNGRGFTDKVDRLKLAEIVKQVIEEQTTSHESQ

[12] = biological target: Tyrosine-protein kinase Lck (Homo sapiens, UniProt P06239); assay: Selectivity interaction (Kinase panel (Z-LYTE Assay)) EUB0001632a LCK; conditions: at 10 µM
Tyrosine-protein kinase Lck, sequence (P06239 2-509 limits assumed): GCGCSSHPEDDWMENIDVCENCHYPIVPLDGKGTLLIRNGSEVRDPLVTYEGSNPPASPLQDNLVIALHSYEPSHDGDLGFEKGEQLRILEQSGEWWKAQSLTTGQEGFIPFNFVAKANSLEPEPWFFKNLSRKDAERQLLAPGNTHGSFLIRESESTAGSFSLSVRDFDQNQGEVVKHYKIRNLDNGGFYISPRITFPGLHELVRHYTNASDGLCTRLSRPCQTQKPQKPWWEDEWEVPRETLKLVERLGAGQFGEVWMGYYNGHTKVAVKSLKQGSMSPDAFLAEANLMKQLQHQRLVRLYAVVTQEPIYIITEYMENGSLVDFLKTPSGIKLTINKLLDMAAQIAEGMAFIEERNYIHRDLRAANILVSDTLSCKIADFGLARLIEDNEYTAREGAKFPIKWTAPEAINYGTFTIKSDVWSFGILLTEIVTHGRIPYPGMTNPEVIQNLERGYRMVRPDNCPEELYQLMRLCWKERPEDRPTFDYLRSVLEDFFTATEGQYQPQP

Calcium/calmodulin-dependent protein kinase type 1 (Homo sapiens), sequence (Q14012 whole entry, looked up): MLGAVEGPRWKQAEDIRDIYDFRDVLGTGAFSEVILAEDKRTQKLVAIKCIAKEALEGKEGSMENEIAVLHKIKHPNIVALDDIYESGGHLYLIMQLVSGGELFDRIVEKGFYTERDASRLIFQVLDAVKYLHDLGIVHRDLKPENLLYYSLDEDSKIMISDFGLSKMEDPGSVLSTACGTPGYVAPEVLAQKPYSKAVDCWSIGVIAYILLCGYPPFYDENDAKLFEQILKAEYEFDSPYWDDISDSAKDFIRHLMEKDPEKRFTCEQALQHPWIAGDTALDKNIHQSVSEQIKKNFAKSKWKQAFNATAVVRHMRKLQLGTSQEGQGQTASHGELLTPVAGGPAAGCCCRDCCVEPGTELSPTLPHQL

**Q.** `O=C(NOC[C@H](O)CO)c1ccc(F)c(F)c1Nc1ccc(I)cc1F` was tested. Which % of control [1] did it give?
**A.** The % of control was 98%.

**Q.** With `Nc1cnc(N2CCc3cc(S(=O)(=O)Nc4c(F)cc(Cl)cc4F)cc(N4CCCC4=O)c32)nc1` [TP-020n] as the compound, how does the % of control [2] read?
**A.** The % of control was 74%.

**Q.** With `C=CC(=O)Nc1ccc(C(=O)Nc2[nH]nc3c2CN(C(=O)N[C@H](CN(C)C)c2ccccc2)C3(C)C)cc1` as the compound, how does the % of engagement [3] read?
**A.** Its % of engagement is 4.7%.

**Q.** Which % of control [4] does the source give for `CCN(CC)CCCCNc1ncc2cc(-c3cc(OC)cc(OC)c3)c(NC(=O)NC(C)(C)C)nc2n1` here?
**A.** Its % of control is 100%.

**Q.** `CC[C@@H]1[C@H](F)C(=O)N[C@@H]1COc1nccc2cc(C(N)=O)c(OC)cc12` [ZIMLOVISERTIB] was tested. Which % of inhibition ([5]; at 0.01 µM) did it give?
**A.** Its % of inhibition is 7.2%.

**Q.** And the % of inhibition ([5]; at 0.04 µM)?
**A.** Its % of inhibition is -7.1%.

**Q.** And the % of inhibition ([5]; at 0.2 µM)?
**A.** Its % of inhibition is -24.4%.

**Q.** And the % of inhibition ([5]; at 1 µM)?
**A.** Its % of inhibition is -6%.

**Q.** And the % of inhibition ([5]; at 5 µM)?
**A.** The % of inhibition was 38.5%.

**Q.** And the % of inhibition [6]?
**A.** The % of inhibition was 17.5%.

**Q.** `CCC(=O)N1CCN(c2ccc(-n3c(=O)ccc4cnc5ccc(-c6cnc7ccccc7c6)cc5c43)cc2C(F)(F)F)CC1` was tested. Which % of control [7] did it give?
**A.** Its % of control is 100%.

**Q.** `C=CC(=O)Nc1cc(-n2c(=O)ccc3cnc4ccc(-c5ccc(NS(C)(=O)=O)cc5)cc4c32)ccc1C` was tested. Which % of control ([8]; at 1 µM) did it give?
**A.** The % of control was 89%.

**Q.** What about the % of control ([8]; at 10 µM) of the same compound?
**A.** Its % of control is 29%.

**Q.** And the % of control [9]?
**A.** Its % of control is 57%.

**Q.** For `N#Cc1cccc(-c2c[nH]c3ncnc(N4CCOCC4)c23)c1`, which % of control [10] is on record?
**A.** Its % of control is 62%.

**Q.** Which % of inhibition [11] does the source give for `CNC(=O)Nc1ccc(-c2nc(N3CC4CCC(C3)O4)c3cnn(C4CCC5(CC4)OCCO5)c3n2)cc1` here?
**A.** The % of inhibition was 5%.

**Q.** `Cn1cc(-n2cnc3c(NCc4nc5cc(Cl)c(Cl)cc5[nH]4)nc(N4CCOCC4)nc32)cn1` was tested. Which % of control [12] did it give?
**A.** Its % of control is 11.9%.
